Molecular target: Wee1 (Homo sapiens (Human), UniProt P30291)
Assay: In vitro enzymatic inhibitory activity (33P-ATP filter-binding kinase assay, MBP substrate)
Type: biochemical
Conditions: Wee-1 150 nM, MBP 20 μM
Procedure: The compounds of the present invention for experimental use were all self-prepared, and their chemical names and structural formulas are shown in the preparation embodiments of the respective compounds. The experimental tests were carried out in Reaction Biology Corporation, USA, and the experimental results were provided by the company. Basic reaction buffer: 20 mM hydroxyethylpiperazine ethanesulfuric acid (pH 7.5), 10 mM magnesium chloride, 1 mM EGTA, 0.02% Brij35, 0.02 mg/mL bovine serum albumin, 0.1 mM Na3VO4, 2 mM DTT, 1% DMSO Enzyme: Wee-1 concentration is 150 nM Matrix: MBP concentration is 20 μM The tested compound was formulated into a 5 mM solution with 100% DMSO, and a 10 points 3-fold gradient dilution was performed with DMSO through an automated pipetting station epMotion 5070. 1. Fresh matrix configuration reaction buffer was prepared; 2. The Wee-1 was added into the matrix solution and shaked gently; 3. DMSO solution of the compound were added into the kinase reaction mixture using an acoustic technique (Echo 550; nanoliter range) and incubated for 20 minutes at room temperature; 4. ^33P-ATP (specific activity, 10 μCi/μL) was added into the reaction mixture to stimulate the reaction; 5. Incubated for 2 hours at room temperature; 6. Kinase activity was detected by filter-binding method.

Wee1, sequence (P30291 whole entry): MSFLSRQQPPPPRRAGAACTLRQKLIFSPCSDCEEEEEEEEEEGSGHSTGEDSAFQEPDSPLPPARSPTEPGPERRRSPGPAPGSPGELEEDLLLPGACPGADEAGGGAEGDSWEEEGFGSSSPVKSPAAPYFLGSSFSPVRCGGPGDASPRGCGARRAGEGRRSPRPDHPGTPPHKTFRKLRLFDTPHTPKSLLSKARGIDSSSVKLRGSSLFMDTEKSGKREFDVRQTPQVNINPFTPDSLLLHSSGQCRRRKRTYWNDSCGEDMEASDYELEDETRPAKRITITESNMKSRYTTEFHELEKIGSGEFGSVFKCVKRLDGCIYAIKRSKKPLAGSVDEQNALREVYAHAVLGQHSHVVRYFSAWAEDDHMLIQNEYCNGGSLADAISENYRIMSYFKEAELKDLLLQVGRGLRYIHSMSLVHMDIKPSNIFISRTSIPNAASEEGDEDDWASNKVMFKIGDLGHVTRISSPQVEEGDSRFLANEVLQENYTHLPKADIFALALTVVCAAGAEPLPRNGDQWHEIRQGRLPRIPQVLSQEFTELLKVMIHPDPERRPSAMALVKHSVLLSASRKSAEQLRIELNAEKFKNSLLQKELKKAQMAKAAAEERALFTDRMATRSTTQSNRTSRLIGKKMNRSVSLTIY

| IC50 | Structure (SMILES) |
| --- | --- |
| 328 nM | C=CCn1c(=O)c2cnc(Nc3ccc(N4CCC5(CCN(C)CC5)CC4)cc3OC)nc2n1-c1cccc(C(C)(C)O)n1 [Embodiment 37, 2-allyl-1-(6-(2-hydroxypropan-2-yl)pyridin-2-yl)-6((2-methoxy-4-(9-methyl-3,9-diazaspiro[5.5]undecan-3-yl)phenyl)amino)-1H-pyrazolo[3,4-d]pyrimidin-3(2H)-one] |
| 7.4 nM | C=CCn1c(=O)c2cnc(Nc3ccc(N4CCC5(CCN(C)CC5)CC4)cc3)nc2n1-c1cccc(C2CC2)n1 [Embodiment 45, 2-allyl-1-(6-cyclopropylpyridin-2-yl)-6-((4-(9-methyl-3,9-diazaspiro[5.5]undecan-3-yl)phenyl)amino)-1H-pyrazolo[3,4-d]pyrimidin-3(2H)-one] |
| 15.7 nM | C=CCn1c(=O)c2cnc(Nc3ccc(N4CCC5(CCN(CC(F)F)CC5)CC4)cc3)nc2n1-c1cccc(C(C)(C)O)n1 [Embodiment 61] |
| 36.1 nM | C=CCn1c(=O)c2cnc(Nc3ccc(N4CCC5(CCN(CCC#N)CC5)CC4)cc3)nc2n1-c1cccc(C(C)(C)O)n1 [Embodiment 62, 3-(9-(4((2-allyl-1(6-(2-hydroxypropan-2-yl)pyridin-2-yl)-3-oxo-2,3-dihydro-1H-pyrazolo[3,4-d]pyrimidin-6-yl)amino)phenyl)-3,9-diazaspiro[5.5]undecan-3-yl)propionitrile] |
| 15 nM | C=CCn1c(=O)c2cnc(Nc3ccc(N4CCC5(CCN(C(=O)OC)CC5)CC4)cc3)nc2n1-c1cccc(C(C)(C)O)n1 [Embodiment 31, methyl-9-(4-((2-allyl-1-(6-(2-hydroxypropan-2-yl)pyridin-2-yl)-3-oxo-2,3-dihydro-1H-pyrazolo[3,4-d]pyrimidin-6-yl)amino)phenyl)-3,9-diazaspiro[5.5]undecan-3-ethyl carboxylate] |
| 12.8 nM | C=CCn1c(=O)c2cnc(Nc3ccc(N4CCC5(CCN(C)CC5)CC4)cc3)nc2n1-c1cccc(C(C)C)n1 [Compound 67] |
| 22.6 nM | C=CCn1c(=O)c2cnc(Nc3ccc(N4CCC5(CCN(C)CC5)CC4)cc3)nc2n1-c1cccc(P(C)(C)=O)n1 [Embodiment 59, 2-allyl-1-(6-(dimethylphosphory)pyridin-2-yl)-6-((4-(9-methyl-3,9-diazaspiro[5.5]undecan-3-yl)phenyl)amino)-1H-pyrazolo[3,4-d]pyrimidin-3(2H)-one] |
| 14.1 nM | C=CCn1c(=O)c2cnc(Nc3ccc(N4CCC5(CCN(C)CC5)CC4)cc3)nc2n1-c1ccc(Cl)cn1 [Embodiment 26, 2-allyl-1-(5-chloropyridin-2-yl)-6-((4-(9-methyl-3,9-diazaspiro[5.5]undecan-3-yl)phenyl)amino)-1H-pyrazolo[3,4-d]pyrimidin-3(2H)-one] |
| 47 nM | C=CCn1c(=O)c2cnc(Nc3ccc(N4CCC5(CCN(C)CC5)CC4)cc3)nc2n1-c1cccc(N2CCOC2=O)n1 [Embodiment 57, 3-(6-(2-allyl-6((4-(9-methyl-3,9-diazaspiro[5.5]undecan-3-yl)phenyl)amino)-3-oxo-2,3-dihydro-1H-pyrazolo[3,4-d]pyrimidin-1-yl)pyridin-2-yl)oxazolidin-2one] |
| 13.2 nM | C=CCn1c(=O)c2cnc(Nc3ccc(N4CCC5(CCN(C)CC5)CC4)cc3)nc2n1-c1ccc(F)cn1 [Embodiment 28, 2-allyl-1-(5-fluoropyridin-2-yl)-6-((4-(9-methyl-3,9-diazaspiro[5.5]undecan-3-yl)phenyl)amino)-1H-pyrazolo[3,4-d]pyrimidin-3(2H)-one] |
| 5.7 nM | C=CCn1c(=O)c2cnc(Nc3ccc(N4CCC5(CC4)CCN(C4COC4)CC5)cc3)nc2n1-c1cccc(C(C)(C)O)n1 [Compound 69] |
| 30.7 nM | C=CCn1c(=O)c2cnc(Nc3ccc(N4CCC5(CCN(C)CC5)CC4)cc3)nc2n1-c1cccc(C2(O)CCC2)n1 [Embodiment 40, 2-allyl-1-(6-(1-hydroxycyclobutyl)pyridin-2-yl)-6-((4-(9-methyl-3,9-diazaspiro[5.5]undecan-3-yl)phenyl)amino)-1H-pyrazolo[3,4-d]pyrimidin-3(2H)-one] |
| 74 nM | C=CCn1c(=O)c2cnc(Nc3ccc(N4CCC5(CCN(C)CC5)CC4)cc3)nc2n1-c1cccc(N2CCN(C)C2=O)n1 [Embodiment 56] |
| 102 nM | C=CCn1c(=O)c2cnc(Nc3ccc(N4CCC5(CCN(C)CC5)CC4)cc3)nc2n1-c1cncnc1 [Embodiment 6, 2-allyl-6-((4-(9-methyl-3,9-diazaspiro[5.5]undecan-3-yl)phenyl)amino)-1-(pyrimidin-5-yl)-1H-pyrazolo[3,4-d]pyrimidin-3(2H)-one] |
| 9.9 nM | C=CCn1c(=O)c2cnc(Nc3ccc(N4CCC5(CCN(CCOC)CC5)CC4)cc3)nc2n1-c1cccc(C(C)(C)O)n1 [Compound 64, 2-allyl-1-(6-(2-hydroxypropan-2-yl)pyridin-2-yl)-6-((4-(9-(2-methoxylethyl)-3,9-diazaspiro[5.5]undecan-3-yl)phenyl)amino)-1H-pyrazolo[3,4-d]pyrimidin-3(2H)-one] |
| 52.8 nM | C=CCn1c(=O)c2cnc(Nc3ccc(N4CCC5(CCN(C)CC5)CC4)cc3)nc2n1-c1cccc(C(N)=O)c1 [Embodiment 16, 3-(2-allyl-6-((4-(9-methyl-3,9-diazaspiro[5.5]undecan-3-yl)phenyl)amino)-3-oxo-2,3-dihydro-1H-pyrazolo[3,4-d]pyrimidin-1-yl)benzamide] |
| 20.3 nM | C=CCn1c(=O)c2cnc(Nc3ccc(N4CCC5(CCN(C(=O)OC)CC5)CC4)cc3)nc2n1-c1cccc(C(=O)N(C)C)n1 [Compound 70, methyl-9-(4-((2-allyl-1-(6-(dimethylaminoformyl)pyridin-2-yl)-3-oxo-2,3-dihydro-1H-pyrazolo[3,4-d]pyrimidin-6-yl)amino)phenyl)-3,9-diazaspiro[5.5]undecan-3-carboxylate] |
| 71 nM | C=CCn1c(=O)c2cnc(Nc3ccc(N4CCC5(CCN(C)CC5)CC4)cc3)nc2n1-c1cccc(O[C@@H]2CCOC2)n1 [Embodiment 52, (R)-2-allyl-6-((4(9-methyl-3,9-diazaspiro[5.5]undecan-3-yl)phenyl)amino)-1-(6-((tetrahydrofuran-3-yl)oxy)pyridin-2-yl)-1H-pyrazolo[3,4-d]pyrimidin-3(2H)-one] |
| 47.8 nM | C=CCn1c(=O)c2cnc(Nc3ccc(N4CCC5(CCN(C)CC5)CC4)cc3)nc2n1-c1cccc(C(=O)NC)n1 [Embodiment 14, 6-(2-allyl-6-((4-(9-methyl-3,9-diazaspiro[5.5]undecan-3-yl)phenyl)amino)-3-oxo-2,3-dihydro-1H-pyrazolo[3,4-d]pyrimidin-1-yl)-N-methylpicolinamide] |
| 57.1 nM | C=CCn1c(=O)c2cnc(Nc3ccc(N4CCC5(CCN(C)CC5)CC4)c(C)c3)nc2n1-c1cccc(C(C)(C)O)n1 [Embodiment 36, 2-allyl-1-(6-(2-hydroxypropan-2-yl)pyridin-2-yl)-6((3-methyl-4-(9-methyl-3,9-diazaspiro[5.5]undecan-3-yl)phenyl)amino)-1H-pyrazolo[3,4-d]pyrimidine-3(2H)-one] |
| 120 nM | C=CCn1c(=O)c2cnc(Nc3ccc(N4CCC5(CCN(C)CC5)CC4)c(F)c3)nc2n1-c1cccc(C(C)(C)O)n1 [Embodiment 34, 2-allyl-6((3-fluoro-4-(9-methyl-3,9-diazaspiro[5.5]undecan-3-yl)phenyl)amino)-1-(6-(2-hydroxypropan-2-yl)pyridin-2-yl)-1H-pyrazolo[3,4-d]pyrimidin-3(2H)-one] |

From patent publication US10954253B2, “1,2-dihydro-3H-pyrazolo[3,4-d]pyrimidin-3-one derivative as Wee1 inhibitor” (SHIJIAZHUANG SAGACITY NEW DRUG DEVELOPMENT CO., LTD., priority 2017, dated 2021)
